Columns and labels:
[1] = system: fractured mice; conditions: 20 month old mice, i.p. apelin 0.5 nmol/kg before and during 3 days after the fracture, tested after 3 days; FIG. 4
Method: FIG. 4: Percentage of freezing in aged mice. Twenty month old male C57B16/j mice were fractured with (fracture apelin) or without (fracture PBS) an i.p treatment of apelin (0.5 nmol/kg) before and during 3 days after the fracture. After 3 days, animal hippocampal memory was tested by fear conditioning test. N=6 to 10, *p<0.05 compared to control.
To test the long-term memory and learning abilities, a fitness test to fear (Fear Conditioning Test) was used.
During the learning session, this test combines a painful and anxiety-producing event (2 short electrical discharges 0.3 mA 2 s on the legs) in an environmental context (floor cage with metal grills, washed several times a day with an alcoholic solution), visual (compound walls of black and white stripes, and white light patterns on the walls of the room) and sound (each discharge is preceded by a 80 dB sound 20 seconds). The learning phase lasted 4 minutes 25 seconds.
In the context of test sessions, conducted in the 3rd postoperative day, the animal was reintroduced in the same cage for 4 minutes. The context was the same but without sound stimulation or pain stimulus. […] Operator who ignored the treatment received by each animal evaluated the freezing time of each animal. […]

[2] = system: TNFa mRNA; conditions: fractured mice, tissues collected 72 hours after fracture; FIG. 3a
Method: (§1) All mice were anaesthetized with 2-3% sevoflurane. Adequate anesthesia was ascertained by an absent pedal withdrawal reflex after hard pinching of the toe. Closed tibial fracture was performed as previously described (Minville et al 2008). Briefly, after antiseptic preparation of the right paw with povidone-iodine, a unilateral closed fracture was produced in the right tibia using a specially designed fracture apparatus (blunt guillotine). For the intramedullary pinning using a sterile technique, a hole was made above the tibial tuberosity per-cutaneously using a 27 G needle (BD Microlance—27G ¾L 19 mm). Then, the needle was directed straight into the medullary canal. By rotating the needle, the canal was reamed to 5 mm up to the ankle joint. The end of the needle was cut as short as possible so that the skin could roll over and covers it. No suture was performed. The mouse was then placed with the leg on the anvil in order to line up the blunt guillotine with the proximal third of the tibia. A 300 g weight was decreased from a height of 9 to 10 cm, fracturing the tibia shaft.
(§2) Apelin administration (ip, 0.5 umol/kg, Bachem) has been performed 1 hour before fracture and daily during the 15 consecutive days.

[3] = system: fractured mice
Method: as §1, §2

[4] = system: IL-6 mRNA; conditions: fractured mice, tissues collected 72 hours after fracture; FIG. 3b
Method: as §1, §2

With apelin as the substance, how does the “Hippocampal memory (percentage of freezing) in aged mice after fracture” value [1] read?
Its value is “do not exhibit hippocampal memory failure”.

What about the “Hematoma TNFa mRNA expression” value [2] of the same substance?
The value was “strong decreased”.

And the “Pain and nociception measured by Von Frey technique” value ([3]; apelin ip 0.5 umol/kg 1 hour before fracture and daily, tested at day 1, 5 and 15 after fracture, FIG. 1a)?
The value was “significantly decreased”.

What about the “Pain and nociception measured by Hargreave's technique” value ([3]; apelin ip 0.5 umol/kg 1 hour before fracture and daily, tested at day 1, 5 and 15 after fracture, FIG. 1b) of the same substance?
Its value is “significantly decreased”.

And the “Freezing rate in non-operated mice” value ([3]; non-operated mice treated by apelin, FIG. 2)?
Its value is “did not display change”.

What about the “Freezing rate in operated mice, compared to operated mice receiving saline injections” value ([3]; operated mice, daily injection of apelin, day 3 after fracture, FIG. 2) of the same substance?
The value was “increased”.

What about the “Hippocampus IL-6 mRNA expression” value [4] of the same substance?
The value was “avoid IL-6 increase”.

From patent US11896649B2, “Methods and pharmaceutical compositions for the treatment of post-operative cognitive dysfunction” (INSERM (INSTITUT NATIONAL DE LA SANTE ET DE LA RECHERCHE …, priority 2016, dated 2024)
